Columns and labels:
MV-4-11 cells = test: Oncology cell growth assay MV-4-11 (CellTiter Glo); format: cell-based; settings: Homo sapiens, MV4-11, 72 h; read-out: Cell activity (IC50 μM) MV-4-11 3d-Growth
How it was run: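 MV-4-11 AML cells (MLL-AF4), 3000 per well, exposed to 8-point 1:3 compound titration from 10 μM top concentration (0.2% DMSO) for 72 h. Viability by CellTiter Glo luminescence, normalized to DMSO controls; pIC50 from four-parameter curve fit.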

bromodomain = test: at least one of the bromodomain cell assays of Example 57; format: cell-based; settings: at least one of the bromodomain cell assays described in Example 57; read-out: IC50 in at least one of the bromodomain cell assays
BRD4-BD1 (44-164) = BRD4-BD1 (44-164) (Homo sapiens (Human), UniProt O60885); test: Alphascreen binding assay BRD4-BD1; settings: BRD4(1) H4; read-out: Biochemical activity (IC50 μM) BRD4(1) H4
How it was run: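 His-tagged E. coli-expressed BRD4 BD1 (44-164) or BD1-BD2 (1-477) incubated 1 h at room temperature with biotinylated tetra-acetylated histone H4 1-21 peptide and compound in HEPES pH 7.5, NaCl, BSA, Triton X-100, DTT buffer. Ni-chelate/streptavidin AlphaScreen beads (7.5 µg/ml) added, read after 30 min; pIC50 from four-parameter fit.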

BRD4-BD12 (1-477) = BRD4-BD12 (1-477) (Homo sapiens (Human), UniProt O60885); test: Alphascreen binding assay BRD4-BD12; settings: BRD4(1 2) H4; read-out: Biochemical activity (IC50 μM) BRD4(1 2) H4
How it was run: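 First, compound was preincubated 1 h at room temperature with the His-tagged BRD4 protein (BD1 44-164 or tandem BD12 1-477) and acetylated H4 peptide. Next, donor and acceptor beads were added at 7.5 μg/ml final. After 30 min, AlphaScreen emission was recorded.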

Compound: Cc1noc(C)c1-c1cnc2c(-c3cnn(CC(F)(F)F)c3)cn(C(CC#N)C3CC3)c2c1 (stereo not shown) [P-0315, 3-cyclopropyl-3-[6-(3,5-dimethylisoxazol-4-yl)-3-[1-(2,2,2-trifluoroethyl)pyrazol-4-yl]pyrrolo[3,2-b]pyridin-1-yl]propanenitrile]
- IC50 (MV-4-11 cells): < 1 µM
- IC50 (bromodomain): < 10000 nM
- IC50 (BRD4-BD1 (44-164)): < 1 µM
- IC50 (BRD4-BD12 (1-477)): < 1 µM

Compound: Cc1noc(C)c1-c1cnc2c(Br)cn(CC3CCC(F)(F)CC3)c2c1 [P-0281, 4-[3-bromo-1-[(4,4-difluorocyclohexyl)methyl]pyrrolo[3,2-b]pyridin-6-yl]-3,5-dimethyl-isoxazole]
- IC50 (MV-4-11 cells): < 1 µM
- IC50 (bromodomain): < 10000 nM
- IC50 (BRD4-BD1 (44-164)): < 1 µM
- IC50 (BRD4-BD12 (1-477)): < 1 µM

Compound: Cc1nc(C)c(-c2cnc3ccn(CC4CCC(F)(F)CC4)c3c2)s1 [P-0294, 5-[1-[(4,4-difluorocyclohexyl)methyl]pyrrolo[3,2-b]pyridin-6-yl]-2,4-dimethyl-thiazole]
- IC50 (MV-4-11 cells): 1 to 10 µM
- IC50 (bromodomain): < 10000 nM
- IC50 (BRD4-BD1 (44-164)): 10 to 200 µM
- IC50 (BRD4-BD12 (1-477)): < 1 µM

Compound: Cc1noc(C)c1-c1cnc2c(-c3ccc(=O)n(C)c3)cn(C(C)c3ccccc3)c2c1 (stereo not shown) [P-0274, 5-[6-(3,5-dimethylisoxazol-4-yl)-1-(1-phenylethyl)pyrrolo[3,2-b]pyridin-3-yl]-1-methyl-pyridin-2-one]
- IC50 (MV-4-11 cells): < 1 µM
- IC50 (bromodomain): < 10000 nM
- IC50 (BRD4-BD1 (44-164)): < 1 µM
- IC50 (BRD4-BD12 (1-477)): < 1 µM

Compound: Cc1noc(C)c1-c1cnc2c(I)cn(Cc3ccccn3)c2c1 [P-0333, 4-[3-iodo-1-(2-pyridylmethyl)pyrrolo[3,2-b]pyridin-6-yl]-3,5-dimethyl-isoxazole]
- IC50 (MV-4-11 cells): < 1 µM
- IC50 (bromodomain): < 10000 nM
- IC50 (BRD4-BD1 (44-164)): < 1 µM
- IC50 (BRD4-BD12 (1-477)): < 1 µM

Compound: Cc1oncc1-c1cnc2ccn(CC3CCC(F)(F)CC3)c2c1 [P-0283, 4-[1-[(4,4-difluorocyclohexyl)methyl]pyrrolo[3,2-b]pyridin-6-yl]-5-methyl-isoxazole]
- IC50 (MV-4-11 cells): 1 to 10 µM
- IC50 (bromodomain): < 10000 nM
- IC50 (BRD4-BD1 (44-164)): 1 to 10 µM
- IC50 (BRD4-BD12 (1-477)): 1 to 10 µM

Compound: Cc1noc(C)c1-c1cnc2c(-c3cnn(Cc4ccccc4)c3)cn(CC3CCC(F)(F)CC3)c2c1 [P-0299, 4-[3-(1-benzylpyrazol-4-yl)-1-[(4,4-difluorocyclohexyl)methyl]pyrrolo[3,2-b]pyridin-6-yl]-3,5-dimethyl-isoxazole]
- IC50 (MV-4-11 cells): < 1 µM
- IC50 (bromodomain): < 10000 nM
- IC50 (BRD4-BD1 (44-164)): < 1 µM
- IC50 (BRD4-BD12 (1-477)): < 1 µM

Compound: Cc1n[nH]c(C)c1-c1cn(C(C)c2ccccc2)c2cc(-c3c(C)noc3C)cnc12 (stereo not shown) [P-0287, 4-[3-(3,5-dimethyl-1H-pyrazol-4-yl)-1-(1-phenylethyl)pyrrolo[3,2-b]pyridin-6-yl]-3,5-dimethyl-isoxazole]
- IC50 (MV-4-11 cells): < 1 µM
- IC50 (bromodomain): < 10000 nM
- IC50 (BRD4-BD1 (44-164)): < 1 µM
- IC50 (BRD4-BD12 (1-477)): < 1 µM

Compound: COc1ccc(-c2cn(C(C)c3ccccc3)c3cc(-c4c(C)noc4C)cnc23)cn1 (stereo not shown) [P-0271, 4-[3-(6-methoxy-3-pyridyl)-1-(1-phenylethyl)pyrrolo[3,2-b]pyridin-6-yl]-3,5-dimethyl-isoxazole]
- IC50 (MV-4-11 cells): < 1 µM
- IC50 (bromodomain): < 10000 nM
- IC50 (BRD4-BD1 (44-164)): < 1 µM
- IC50 (BRD4-BD12 (1-477)): < 1 µM

Compound: Cc1ccc(-c2cn(C(C)c3ccccc3)c3cc(-c4c(C)noc4C)cnc23)cn1 (stereo not shown) [P-0272, 3,5-dimethyl-4-[3-(6-methyl-3-pyridyl)-1-(1-phenylethyl)pyrrolo[3,2-b]pyridin-6-yl]isoxazole]
- IC50 (MV-4-11 cells): < 1 µM
- IC50 (bromodomain): < 10000 nM
- IC50 (BRD4-BD1 (44-164)): < 1 µM
- IC50 (BRD4-BD12 (1-477)): < 1 µM

Compound: [2H]C([2H])(C1CCC(F)(F)CC1)n1cc(I)c2ncc(-c3c(C)noc3C)cc21 [P-0262, 4-[1-[dideuterio-(4,4-difluorocyclohexyl)methyl]-3-iodo-pyrrolo[3,2-b]pyridin-6-yl]-3,5-dimethyl-isoxazole]
- IC50 (MV-4-11 cells): < 1 µM
- IC50 (bromodomain): < 10000 nM
- IC50 (BRD4-BD1 (44-164)): < 1 µM
- IC50 (BRD4-BD12 (1-477)): < 1 µM

Compound: Cc1noc(C)c1-c1cnc2c(Cl)cn(C(CC#N)C3CC3)c2c1 (stereo not shown) [P-0307, 3-[3-chloro-6-(3,5-dimethylisoxazol-4-yl)pyrrolo[3,2-b]pyridin-1-yl]-3-cyclopropyl-propanenitrile]
- IC50 (MV-4-11 cells): 1 to 10 µM
- IC50 (bromodomain): < 10000 nM
- IC50 (BRD4-BD1 (44-164)): < 1 µM
- IC50 (BRD4-BD12 (1-477)): < 1 µM

Compound: [2H]C([2H])(C1CCC(F)(F)CC1)n1cc(C#CCO)c2ncc(-c3c(C)noc3C)cc21 [P-0370, 3-[1-[dideuterio-(4,4-difluorocyclohexyl)methyl]-6-(3,5-dimethylisoxazol-4-yl)pyrrolo[3,2-b]pyridin-3-yl]prop-2-yn-1-ol]
- IC50 (MV-4-11 cells): < 1 µM
- IC50 (bromodomain): < 10000 nM
- IC50 (BRD4-BD1 (44-164)): < 1 µM
- IC50 (BRD4-BD12 (1-477)): < 1 µM

Compound: Cc1n[nH]c(C)c1-c1cnc2ccn(CC3CCC(F)(F)CC3)c2c1 [P-0285, l-[(4,4-difluorocyclohexyl)methyl]-6-(3,5-dimethyl-1H-pyrazol-4-yl)pyrrolo[3,2-b]pyridine]
- IC50 (MV-4-11 cells): 1 to 10 µM
- IC50 (bromodomain): < 10000 nM
- IC50 (BRD4-BD1 (44-164)): 1 to 10 µM
- IC50 (BRD4-BD12 (1-477)): 10 to 200 µM

Compound: COC(=O)c1ccc(-c2cn(CC3CCC(F)(F)CC3)c3cc(-c4c(C)noc4C)cnc23)cc1 [P-0330, methyl 4-[1-[(4,4-difluorocyclohexyl)methyl]-6-(3,5-dimethylisoxazol-4-yl)pyrrolo[3,2-b]pyridin-3-yl]benzoate]
- IC50 (MV-4-11 cells): < 1 µM
- IC50 (bromodomain): < 10000 nM
- IC50 (BRD4-BD1 (44-164)): < 1 µM
- IC50 (BRD4-BD12 (1-477)): < 1 µM

Compound: Cc1noc(C)c1-c1cnc2c(-c3ccc(N)nc3)cn(C(C)c3ccccc3)c2c1 (stereo not shown) [P-0276, 5-[6-(3,5-dimethylisoxazol-4-yl)-1-(1-phenylethyl)pyrrolo[3,2-b]pyridin-3-yl]pyridin-2-amine]
- IC50 (MV-4-11 cells): < 1 µM
- IC50 (bromodomain): < 10000 nM
- IC50 (BRD4-BD1 (44-164)): < 1 µM
- IC50 (BRD4-BD12 (1-477)): < 1 µM
